Source: US7351531B2, “Molecules capable of binding to telomere and the like and method with the use of the same” (Japan Science and Technology Corporation, priority 2001, dated 2008)

What was measured:
[1] = test system: G-G mismatch base pair in 52-mer duplex DNA; assay: DNase I footprinting titration of 52-mer duplex DNA, G-G mismatch site; format: binding
Method: (§1) A 5′-^32P-labeled 52-mer duplex DNA having a GC base pair, GA mismatch base pair and a GG mismatch base pair in the duplex DNA was prepared. The partial listing of the corresponding moieties is shown below.
(§2) The inventors have analyzed the duplex DNA through DNase I (DNA hydrolase) footprinting titration for the sites where the DNA cleavage by DNase I was inhibited in the presence of a varying concentration of the compound of formula (III).
(§3) The relationship between the cleavage band intensity and the naphthyridine concentration in FIG. 1 is plotted to give a graph as in FIG. 2. The vertical axis of FIG. 2 indicates the cleavage inhibition ratio derived from the cleavage band intensity. […] The horizontal axis of FIG. 2 indicates the concentration (M) of the compound of formula (III) added to the test system. In FIG. 2, the closed circles (●) indicate the G-G mismatch site, and the closed triangles (▴) indicate the G-A mismatch site.
(§4) ^32P-5′-end-labeled 52-mer DNA was hybridized into a duplex DNA with G-G and G-A mismatches (see the right side of FIG. 1).
(§5) A varying concentration of the compound obtained in Example 1 was added to the duplex DNA, and the DNA was analyzed through DNase I footprinting titration.
(§6) Concretely, the duplex DNA (<4 nM strand concentration) was incubated at 4° C. for 12 hours along with a varying concentration of the compound obtained in Example 1, in a tris-HCl buffer (10 mM, pH 7.6) that contains NaCl (100 mM) and MgCl2(5 mM). To this was added 0.2 U DNaseI (DNA hydrolase), and this was further incubated at 25° C. for 8 minutes. Next, this was precipitated in ethanol to recover the DNA, which was then subjected to electrophoresis with a gel that contains 12% polyacrylamide and 7 M urea.

[2] = test system: G-A mismatch base pair in 52-mer duplex DNA; assay: DNase I footprinting titration of 52-mer duplex DNA, G-A mismatch site; format: binding; set-up: effect of inhibiting G-A mismatch site cleavage: dose or concentration left out as unconfirmed
Method: as §1, §2, §3, §4, §5, §6

[3] = test system: normal G-C base pair in 52-mer duplex DNA; assay: DNase I footprinting titration of 52-mer duplex DNA, normal G-C site; format: binding; settings: concentration 0 to 500 μM, FIG. 1
Method: as §1, §2
In FIG. 1, the concentration of the compound of formula (III) varies from 0 to 500 μM from the left to the right. The sites cleaved with the DNase I (DNA hydrolase) are seen black, while those protected from cleavage with the DNase I are seen white.
as §4, §5
as §6, with “Next, this was precipitated in ethanol to recover the DNA, which was then subjected to electrophoresis with a gel that contains 12% polyacrylamide and 7 M urea.” left out

[4] = test system: single-stranded human telomere sequence DNA (22-mer 5'-AGGGTTAGGGTTAGGGTTAGGG3'); assay: Binding titration with single-stranded human telomere sequence DNA (22-mer, FIG. 4)
Method: Samples of single-stranded human telomere sequence DNA were tested for the inhibition of DNA cleavage by DNase I (DNA hydrolase) through footprinting titration in the presence of a varying concentration of the compound of formula (III) (this is hereinafter referred to as naphthyridine dimer or simply as ND).
The test result in FIG. 4 is similar to that in FIG. 2. The vertical axis of FIG. 4 indicates the cleavage inhibition ratio derived from the cleavage band intensity. […] The horizontal axis of FIG. 4 indicates the ratio of the G-G mismatch concentration to the concentration (M) of the compound of formula (III) added to the test system, [GG]/[ND] in which ND means the compound of formula (III).
A solution of a 22-mer oligonucleotide having the following base sequence: • 5′-[…]3′ (SEQ ID NO: 9) in a sodium cacodylate buffer (10 mM, pH 7.0, NaCl 100mM) was heated at 70° C. for 5 minutes, and then gradually cooled so that the oligomer could form a quadraplex structure (see Structure, 263, 1 (1993)). A varying concentration of a naphthyridine dimer was dropwise added to the resulting solution, and the naphthyridine dimer-binding amount was obtained through 360 nm absorptiometry.

[5] = 52-mer duplex DNA, DNase I footprinting titration

## Cc1ccc2ccc(NC(=O)CCNCCC(=O)Nc3ccc4ccc(C)nc4n3)nc2n1 [compound of formula (III), dinaphthyridinamide]
[1]; [5]
  association constant to the G-G mismatch (Ka(GGmis)): 1.13e+07 M⁻¹
[1]; FIG. 2
  concentration at which G-G mismatch site cleavage by DNase I is almost completely inhibited: about 10^−5 M
[1]; G-G versus G-A mismatch, 52-mer duplex DNA
  ratio of the association constants (Ka(GGmis))/(Ka(GAmis)): 696
[2]
  effect of inhibiting G-A mismatch site cleavage: about 90%
[2]; [5]
  association constant to the G-A mismatch (Ka(GAmis)): 16300 M⁻¹
[2]; FIG. 2
  concentration at which compound becomes effective for inhibiting cleavage of the G-A mismatch site: about 10^−6 M
[3]
  protection of normal G-C base pair from DNase I cleavage: cleaved by DNase I
[4]; 22-mer, sodium cacodylate buffer pH 7.0, NaCl 100 mM, Scatchard plot
  association constant to the G-G mismatch (Ka(GGmis)) in human telomere sequence: 420000 M⁻¹
[4]; FIG. 4
  concentration ratio [GG]/[ND] at which G-G mismatch site cleavage is almost completely inhibited: about 3
[4]; FIG. 4, relatively low concentration
  concentration ratio [GG]/[ND] at which compound is already effective for inhibiting cleavage of the G-G mismatch site: 0.5
